# Reference: EP0006772A1, “Thieno and furopyridone derivatives, process for their preparation and medicinal preparations containing them” (OMNIUM FINANCIER AQUITAINE POUR L'HYGIENE ET LA SANTE - …, priority 1978, dated 1980)
# Tested on: agrégation plaquettaire à l'A.D.P.
# Test: ADP-induced platelet aggregation in plasma of orally treated rats (ex vivo)
# Design: species or system rats de souche Wistar
# Details: Rattus norvegicus, 100 mg/kg oral, 3 hours after treatment, versus control, 10 µM A.D.P., read-out: Pourcentage d'inhibition A.D.P.
# Protocol: (§1) Chez des rats de souche Wistar, on effectue un prélèvement sanguin dans la veine jugulaire. A partir de ce sang citraté et après centrifugation, on reconstitue un plasma contenant 600 000 ± 20 000 plaquettes par mm^3, qui servira dans toutes les mesures d'agrégation.
# (§2) On place 0,4 ml de plasma dans un tube siliconé pourvu d'une barre aimantée elle-même siliconée. Le tube est introduit dans un agrégomètre couplé à un appareil permettant d'enregistrer les variations de densité optique. Lorsque la transmission de la lumière a atteint une valeur stable, on introduit dans le tube 0,5 ml d'une solution contenant 10 µM d'A.D.P. (Adénosine-Di Phosphate).
# (§3) L'agrégation des plaquettes provoque alors une augmentation de la transmission lumineuse suivie d'une diminution consécutive à la phase de désagrégation.
# (§4) La variation maximale de densité optique ainsi déterminée caractérise l'intensité de l'agrégation.
# (§5) Différents lots de 20 rats sont uiilisés, chaque lot recevant un dérivé à tester par la vcie orale, à la dose de 100 mg/kg de poids corporel. Les résultats obtenus au cours de ces 2 essais sont rapportés dans le Tableau I suivant qui indique le pourcentage d'inhibition de l'agrégation plaquettaire obtenu, par rapport au témoin, 3 heures après le traitement par le médicament de l'invention, dans le test de l'A.D.P. et au collagène.
row,Compound,inhibition at 100 mg/kg
1,"O=c1[nH]c(-c2ccc(Cl)cc2)cc2sccc12 [dérivé 4, p-chlorophényl-6 thiéno(3,2-c)pyridone-4]",61.2%
2,"COc1ccc(-c2cc3sccc3c(=O)[nH]2)cc1OC [dérivé 7, (diméthoxy-3,4 phényl)-6 thiéno(3,2-c)pyrido-ne-4]",61.7%
3,"O=c1[nH]c(-c2ccc(F)cc2)cc2sccc12 [dérivé 2, p-fluorophényl-6 thiéno(3,2-c)pyridone-4]",60.5%
4,"O=c1[nH]c(-c2cccc(C(F)(F)F)c2)cc2sccc12 [dérivé 11, m-trifluorométhylphényl-6 thiéno(3,2-c)pyri-done-4]",60.1%
5,"O=c1[nH]c(-c2ccccc2)cc2occc12 [dérivé 17, Phényl-6 furo(3,2-c)pyridone-4]",59.8%
6,"O=c1[nH]c(-c2ccccc2)cc2ccsc12 [dérivé 15, Phényl-5 thiéno(2,3-c)pyridone-7]",62.5%
7,"O=c1[nH]c(-c2ccccc2Cl)cc2sccc12 [dérivé 3, o-chlorophényl-6 thiéno(3,2-c)pyridone-4]",58.8%
8,"O=c1[nH]c(-c2ccccc2)cc2sccc12 [dérivé 1, Phényl-6 thiéno(3,2-c)pyridone-4]",62%

# Tested on: agrégation plaquettaire au collagène
# Test: Collagen-induced platelet aggregation in plasma of orally treated rats (ex vivo)
# Design: species or system rats de souche Wistar
# Details: Rattus norvegicus, 100 mg/kg oral, 3 hours after treatment, versus control, collagen (bovine tendon extract), read-out: Pourcentage d'inhibition Collagène
# Protocol: as §1, §2, §3, §4
# La solution d'A.D.P. est remplacée par une solution de collagène (extrait de tendons bovins).
# as §5
row,Compound,inhibition at 100 mg/kg
1,"O=c1[nH]c(-c2ccc(Cl)cc2)cc2sccc12 [dérivé 4, p-chlorophényl-6 thiéno(3,2-c)pyridone-4]",90.5%
2,"COc1ccc(-c2cc3sccc3c(=O)[nH]2)cc1OC [dérivé 7, (diméthoxy-3,4 phényl)-6 thiéno(3,2-c)pyrido-ne-4]",90.6%
3,"O=c1[nH]c(-c2ccc(F)cc2)cc2sccc12 [dérivé 2, p-fluorophényl-6 thiéno(3,2-c)pyridone-4]",91.7%
4,"O=c1[nH]c(-c2cccc(C(F)(F)F)c2)cc2sccc12 [dérivé 11, m-trifluorométhylphényl-6 thiéno(3,2-c)pyri-done-4]",90.7%
5,"O=c1[nH]c(-c2ccccc2)cc2occc12 [dérivé 17, Phényl-6 furo(3,2-c)pyridone-4]",90.4%
6,"O=c1[nH]c(-c2ccccc2)cc2ccsc12 [dérivé 15, Phényl-5 thiéno(2,3-c)pyridone-7]",90.8%
7,"O=c1[nH]c(-c2ccccc2Cl)cc2sccc12 [dérivé 3, o-chlorophényl-6 thiéno(3,2-c)pyridone-4]",92%
8,"O=c1[nH]c(-c2ccccc2)cc2sccc12 [dérivé 1, Phényl-6 thiéno(3,2-c)pyridone-4]",91.4%

# Tested on: oedème localisé provoqué par la carragénine
# Test: Carrageenan-induced localised paw oedema
# Format: in vivo
# Details: rat, 100 mg/kg oral (1 h before, at injection, 1 h and 2.5 h after), 1 h after carrageenan; read-out: pourcentage d'activité anti-inflammatoire Ière heure
# Protocol: Une solution de carragénine (0,1 ml) à 1 % est injectée dans les fléchisseurs métatarsiens de la patte postérieure droite du rat au temps O. Les animaux du lot traité reçoivent en outre, par la voie orale, 100 mg par kg du dérivé à tester respectivement 1 heure avant, en même temps que l'injection de l'agent phlogogène, puis 1 heure et 2 heures et demi après. Les mesures qui sont effectuées à l'aide du micromètre de ROCH aux temps 0, 1 heure, 2 heures, 3 heures et 5 heures après l'administration de la carragénine permettent de déterminer, en fonction du temps, le pourcentage d'activité anti-inflammatoire par comparaison avec le lot témoin.
row,Compound,inhibition in vivo at 100 mg/kg
1,"O=c1[nH]c(-c2ccc(Cl)cc2)cc2sccc12 [dérivé 4, p-chlorophényl-6 thiéno(3,2-c)pyridone-4]",41%
2,"COc1ccc(-c2cc3sccc3c(=O)[nH]2)cc1OC [dérivé 7, (diméthoxy-3,4 phényl)-6 thiéno(3,2-c)pyrido-ne-4]",40%
3,"O=c1[nH]c(-c2ccc(F)cc2)cc2sccc12 [dérivé 2, p-fluorophényl-6 thiéno(3,2-c)pyridone-4]",37%
4,"O=c1[nH]c(-c2cccc(C(F)(F)F)c2)cc2sccc12 [dérivé 11, m-trifluorométhylphényl-6 thiéno(3,2-c)pyri-done-4]",40%
5,"O=c1[nH]c(-c2ccccc2)cc2occc12 [dérivé 17, Phényl-6 furo(3,2-c)pyridone-4]",41%
6,"O=c1[nH]c(-c2ccccc2)cc2ccsc12 [dérivé 15, Phényl-5 thiéno(2,3-c)pyridone-7]",39%
7,"O=c1[nH]c(-c2ccccc2Cl)cc2sccc12 [dérivé 3, o-chlorophényl-6 thiéno(3,2-c)pyridone-4]",37%
8,"O=c1[nH]c(-c2ccccc2)cc2sccc12 [dérivé 1, Phényl-6 thiéno(3,2-c)pyridone-4]",35%

# Same assay, conditions: rat, 100 mg/kg oral (1 h before, at injection, 1 h and 2.5 h after), 2 h after carrageenan; read-out: pourcentage d'activité anti-inflammatoire 2ème heure
row,Compound,inhibition in vivo at 100 mg/kg
1,"O=c1[nH]c(-c2ccc(Cl)cc2)cc2sccc12 [dérivé 4, p-chlorophényl-6 thiéno(3,2-c)pyridone-4]",44%
2,"COc1ccc(-c2cc3sccc3c(=O)[nH]2)cc1OC [dérivé 7, (diméthoxy-3,4 phényl)-6 thiéno(3,2-c)pyrido-ne-4]",44%
3,"O=c1[nH]c(-c2ccc(F)cc2)cc2sccc12 [dérivé 2, p-fluorophényl-6 thiéno(3,2-c)pyridone-4]",41%
4,"O=c1[nH]c(-c2cccc(C(F)(F)F)c2)cc2sccc12 [dérivé 11, m-trifluorométhylphényl-6 thiéno(3,2-c)pyri-done-4]",44%
5,"O=c1[nH]c(-c2ccccc2)cc2occc12 [dérivé 17, Phényl-6 furo(3,2-c)pyridone-4]",44%
6,"O=c1[nH]c(-c2ccccc2)cc2ccsc12 [dérivé 15, Phényl-5 thiéno(2,3-c)pyridone-7]",43%
7,"O=c1[nH]c(-c2ccccc2Cl)cc2sccc12 [dérivé 3, o-chlorophényl-6 thiéno(3,2-c)pyridone-4]",40%
8,"O=c1[nH]c(-c2ccccc2)cc2sccc12 [dérivé 1, Phényl-6 thiéno(3,2-c)pyridone-4]",39%

# Same assay, conditions: rat, 100 mg/kg oral (1 h before, at injection, 1 h and 2.5 h after), 3 h after carrageenan; read-out: pourcentage d'activité anti-inflammatoire 3ème heure
row,Compound,inhibition in vivo at 100 mg/kg
1,"O=c1[nH]c(-c2ccc(Cl)cc2)cc2sccc12 [dérivé 4, p-chlorophényl-6 thiéno(3,2-c)pyridone-4]",48%
2,"COc1ccc(-c2cc3sccc3c(=O)[nH]2)cc1OC [dérivé 7, (diméthoxy-3,4 phényl)-6 thiéno(3,2-c)pyrido-ne-4]",48%
3,"O=c1[nH]c(-c2ccc(F)cc2)cc2sccc12 [dérivé 2, p-fluorophényl-6 thiéno(3,2-c)pyridone-4]",46%
4,"O=c1[nH]c(-c2cccc(C(F)(F)F)c2)cc2sccc12 [dérivé 11, m-trifluorométhylphényl-6 thiéno(3,2-c)pyri-done-4]",49%
5,"O=c1[nH]c(-c2ccccc2)cc2occc12 [dérivé 17, Phényl-6 furo(3,2-c)pyridone-4]",49%
6,"O=c1[nH]c(-c2ccccc2)cc2ccsc12 [dérivé 15, Phényl-5 thiéno(2,3-c)pyridone-7]",48%
7,"O=c1[nH]c(-c2ccccc2Cl)cc2sccc12 [dérivé 3, o-chlorophényl-6 thiéno(3,2-c)pyridone-4]",45%
8,"O=c1[nH]c(-c2ccccc2)cc2sccc12 [dérivé 1, Phényl-6 thiéno(3,2-c)pyridone-4]",45%

# Same assay, conditions: rat, 100 mg/kg oral (1 h before, at injection, 1 h and 2.5 h after), 5 h after carrageenan; read-out: pourcentage d'activité anti-inflammatoire 5ème heure
row,Compound,inhibition in vivo at 100 mg/kg
1,"O=c1[nH]c(-c2ccc(Cl)cc2)cc2sccc12 [dérivé 4, p-chlorophényl-6 thiéno(3,2-c)pyridone-4]",52%
2,"COc1ccc(-c2cc3sccc3c(=O)[nH]2)cc1OC [dérivé 7, (diméthoxy-3,4 phényl)-6 thiéno(3,2-c)pyrido-ne-4]",51%
3,"O=c1[nH]c(-c2ccc(F)cc2)cc2sccc12 [dérivé 2, p-fluorophényl-6 thiéno(3,2-c)pyridone-4]",50%
4,"O=c1[nH]c(-c2cccc(C(F)(F)F)c2)cc2sccc12 [dérivé 11, m-trifluorométhylphényl-6 thiéno(3,2-c)pyri-done-4]",52%
5,"O=c1[nH]c(-c2ccccc2)cc2occc12 [dérivé 17, Phényl-6 furo(3,2-c)pyridone-4]",51%
6,"O=c1[nH]c(-c2ccccc2)cc2ccsc12 [dérivé 15, Phényl-5 thiéno(2,3-c)pyridone-7]",51%
7,"O=c1[nH]c(-c2ccccc2Cl)cc2sccc12 [dérivé 3, o-chlorophényl-6 thiéno(3,2-c)pyridone-4]",48%
8,"O=c1[nH]c(-c2ccccc2)cc2sccc12 [dérivé 1, Phényl-6 thiéno(3,2-c)pyridone-4]",49%

# Tested on: oedème généralisé à l'ovalbumine
# Test: Ovalbumin-induced generalised oedema
# Format: in vivo
# Details: po; rat, 100 mg/kg per os 1 h before and together with ovalbumin, 2 h after ovalbumin injection; read-out: Pourcentage d'activité anti-inflammatoire 2ème heure
# Protocol: Une injection intrapéritonéale simultanée de 1 ml d'ovalbumine et de 0,5 ml d'une solution aqueuse de bleu Evans à 1 % est effectuée sur le rat. D'autre part, on administre per os aux animaux du lot traité 100 mg/kg du dérivé à tester 1 heure avant et en même temps que l'ovalbumine. L'intensité du phénomène ainsi provoqué est notée par un chiffre allant de 1 à 5 suivant la progression du syndrome inflammatoire. On détermine ainsi la moyenne de l'intensité oedémateuse et le pourcentage de diminution de la réaction oedémateuse par rapport au témoin, en fonction du temps.
# Les pourcentages d'activité anti-inflammatoire obtenus à la 2ème heure et 3ème heure après l'injection d'ovalbumine sont consignés dans le Tableau III suivant.
row,Compound,inhibition in vivo at 100 mg/kg
1,"O=c1[nH]c(-c2ccc(Cl)cc2)cc2sccc12 [dérivé 4, p-chlorophényl-6 thiéno(3,2-c)pyridone-4]",47%
2,"COc1ccc(-c2cc3sccc3c(=O)[nH]2)cc1OC [dérivé 7, (diméthoxy-3,4 phényl)-6 thiéno(3,2-c)pyrido-ne-4]",48%
3,"O=c1[nH]c(-c2ccc(F)cc2)cc2sccc12 [dérivé 2, p-fluorophényl-6 thiéno(3,2-c)pyridone-4]",48%
4,"O=c1[nH]c(-c2cccc(C(F)(F)F)c2)cc2sccc12 [dérivé 11, m-trifluorométhylphényl-6 thiéno(3,2-c)pyri-done-4]",51%
5,"O=c1[nH]c(-c2ccccc2)cc2occc12 [dérivé 17, Phényl-6 furo(3,2-c)pyridone-4]",45%
6,"O=c1[nH]c(-c2ccccc2)cc2ccsc12 [dérivé 15, Phényl-5 thiéno(2,3-c)pyridone-7]",47%
7,"O=c1[nH]c(-c2ccccc2Cl)cc2sccc12 [dérivé 3, o-chlorophényl-6 thiéno(3,2-c)pyridone-4]",48%
8,"O=c1[nH]c(-c2ccccc2)cc2sccc12 [dérivé 1, Phényl-6 thiéno(3,2-c)pyridone-4]",45%

# Same assay, conditions: po; rat, 100 mg/kg per os 1 h before and together with ovalbumin, 3 h after ovalbumin injection; read-out: Pourcentage d'activité anti-inflammatoire 3ème heure
row,Compound,inhibition in vivo at 100 mg/kg
1,"O=c1[nH]c(-c2ccc(Cl)cc2)cc2sccc12 [dérivé 4, p-chlorophényl-6 thiéno(3,2-c)pyridone-4]",53%
2,"COc1ccc(-c2cc3sccc3c(=O)[nH]2)cc1OC [dérivé 7, (diméthoxy-3,4 phényl)-6 thiéno(3,2-c)pyrido-ne-4]",55%
3,"O=c1[nH]c(-c2ccc(F)cc2)cc2sccc12 [dérivé 2, p-fluorophényl-6 thiéno(3,2-c)pyridone-4]",54%
4,"O=c1[nH]c(-c2cccc(C(F)(F)F)c2)cc2sccc12 [dérivé 11, m-trifluorométhylphényl-6 thiéno(3,2-c)pyri-done-4]",57%
5,"O=c1[nH]c(-c2ccccc2)cc2occc12 [dérivé 17, Phényl-6 furo(3,2-c)pyridone-4]",51%
6,"O=c1[nH]c(-c2ccccc2)cc2ccsc12 [dérivé 15, Phényl-5 thiéno(2,3-c)pyridone-7]",53%
7,"O=c1[nH]c(-c2ccccc2Cl)cc2sccc12 [dérivé 3, o-chlorophényl-6 thiéno(3,2-c)pyridone-4]",55%
8,"O=c1[nH]c(-c2ccccc2)cc2sccc12 [dérivé 1, Phényl-6 thiéno(3,2-c)pyridone-4]",52%
